Assay results: paper PMC12040169 (PLOS Biology, 2025)

assay: in vitro; conditions: human, hela cells, % viability

Row | Structure (SMILES) | viability at 28.5 h, 10 µM [%]
1 | COc1ccc(-c2ccc(N3CCN(CCN(C)C)CC3)nc2)cc1OC [CBK036818] | 98.2
2 | O=C(Nc1cnc(-c2ccc(F)c(Cl)c2)c(-c2cccnc2)n1)c1cnccn1 [CBK036819] | 102
3 | CN(C)CCN(C)c1ccc(-c2cc3ccccc3o2)cn1 [CBK036820] | 107
4 | Fc1ccc(-c2ccc(N3CCN(c4ccncc4)CC3)nc2)cc1Cl [CBK036821] | 111
5 | CN(C)CCN(C)c1cccc(/C=C/c2ccccc2)n1 [CBK036826] | 109
6 | COc1ccc(Nc2ccc(-c3cnc(OC)nc3OC)cn2)c(C)c1 [CBK036827] | 115
7 | C=CCNc1nccnc1-c1ccccc1OC [CBK036831] | 106
8 | O=C1CCCN1CCCNc1nccnc1-c1ccncc1 [CBK036832] | 106
9 | FC(F)(F)c1ccc(CNc2nccnc2-c2cccs2)cc1 [CBK036834] | 98.6
10 | O=C(Nc1cnc(-c2cccc(OC(F)(F)F)c2)c(-c2cccnc2)n1)c1ccccn1 [CBK036837] | 99.2
11 | CN1CCN(C(=O)c2ccc(-c3nccnc3NCCc3cccnc3)cc2)CC1 [CBK036838] | 97.2
12 | COc1ccc(-c2nc(NC(=O)Cc3ccccc3OC)cnc2-c2cccc(C)c2)cn1 [CBK036839] | 111
13 | CC(=O)c1ccc(-c2nc(NC(=O)CC#N)cnc2-c2ccc(F)c(Cl)c2)s1 [CBK036841] | 108
14 | O=C(CCN1CCCCC1)Nc1cnc(-c2ccc(F)cc2)c(-c2ccsc2)n1 [CBK036846] | 90.3
15 | COc1ncc(-c2ccc(N3CCN(c4ccncc4)CC3)nc2)c(OC)n1 [CBK036848] | 99.1
16 | c1ccc(N2CCN(c3cccc(-c4ccc5c(c4)OCO5)n3)CC2)nc1 [CBK036851] | 104
17 | O=C1CCCN1CCCNc1nccnc1-c1ccc(CO)cc1 [CBK036860] | 87.2
18 | Fc1cccc(-c2nccnc2NCCc2c[nH]c3ccccc23)c1 [CBK036861] | 96.7
19 | COCCNc1nccnc1-c1cccc(C(=O)N2CCN(C)CC2)c1 [CBK036864] | 99.9
20 | COc1cc(CNc2nccnc2-c2ccc(C(=O)N3CCOCC3)cc2)cc(OC)c1 [CBK036866] | 99.2
21 | O=C(Nc1cnc(-c2cccc(C(F)(F)F)c2)c(-c2ccco2)n1)c1ccccn1 [CBK036873] | 88.5
22 | c1ccc(N2CCN(c3cccc(-c4cc5ccccc5o4)n3)CC2)nc1 [CBK036875] | 107
23 | CN1CCN(c2nccnc2-c2cccc(F)c2)CC1 [CBK036876] | 89.8

Row | Structure (SMILES) | viability at 28.5 h, 10 µM [%]
24 | CN(C)c1cccc(Nc2ccc(-c3cccc(C(=O)O)c3)cn2)c1 [CBK036879] | 101
25 | O=C(O)c1cccc(-c2cccc(N3CCN(c4ccccn4)CC3)n2)c1 [CBK036888] | 92.7
26 | COc1ccccc1-c1nccnc1NCc1ccccn1 [CBK036894] | 108
27 | O=C(CCOc1ccccc1F)Nc1cnc(-c2ccc(F)cc2)c(-c2ccsc2)n1 [CBK036897] | 99.7
28 | C=CCNc1nccnc1-c1ccc(O)cc1 [CBK036898] | 99.6
29 | CN(C)c1ccc(CC(=O)Nc2cnc(-c3cccc(C(F)(F)F)c3)c(-c3cccnc3)n2)cc1 [CBK036901] | 98.2
30 | COc1cc(-c2ccc(NCCn3cc[nH]c3=O)nc2)cc(OC)c1OC [CBK036907] | 106
31 | COc1ccccc1-c1ccc(Nc2ccccc2)nc1 [CBK036909] | 85.4
32 | NCCCNc1ccc(-c2ccco2)cn1 [CBK036911] | 100
33 | c1ccc(Oc2ccccc2-c2ccc(Nc3ccc(N4CCOCC4)cc3)nc2)cc1 [CBK036913] | 108
34 | CN(C)c1cccc(Nc2ccc(-c3ccc(CCC(=O)O)cc3)cn2)c1 [CBK036918] | 97.2
35 | O=C(c1ccc(-c2nccnc2NCc2ccco2)cc1)N1CCOCC1 [CBK036920] | 98.6
36 | CS(=O)(=O)c1ccc(-c2nccnc2N2CCN(c3ccncc3)CC2)cc1 [CBK036924] | 98.5
37 | CN(C)c1ccc(-c2nccnc2NCC(O)COc2ccccc2)cc1 (centres unmarked) [CBK036928] | 103
38 | CC(=O)c1ccc(-c2nc(NC(=O)c3ccccn3)cnc2-c2cccc(OC(F)(F)F)c2)s1 [CBK036929] | 107
39 | Cc1ccc(-c2ccc(N3CCN(C)CC3)nc2)cc1C [CBK036937] | 93.7
40 | CCOc1ccccc1C(=O)Nc1cnc(-c2cccc(OC(F)(F)F)c2)c(-c2cccnc2)n1 [CBK036952] | 114
41 | COc1ccc(-c2nc(NC(=O)c3ccco3)cnc2-c2cccc(C)c2)cn1 [CBK036954] | 96.8
42 | O=C(COc1ccccc1)Nc1cnc(-c2ccc(F)cc2)c(-c2ccsc2)n1 [CBK036958] | 91.7
43 | CC(=O)Nc1cccc(-c2cc(N3CCN(C(=O)c4ccco4)CC3)ncn2)c1 [CBK036959] | 93.7
44 | c1ccc(CCNc2cc(-c3ccsc3)ncn2)nc1 [CBK036963] | 93.9
45 | c1cncc(-c2nccnc2N2CCN(c3ccncc3)CC2)c1 [CBK036965] | 86.4
46 | COc1ccc(N2CCN(c3nccnc3-c3ccc(C(C)=O)s3)CC2)cc1OC [CBK036968] | 109

Row | Structure (SMILES) | viability at 28.5 h, 10 µM [%]
47 | COc1ccc(-c2cc(Nc3ccc(N(C)C)cc3)ncn2)cc1OC [CBK036969] | 108
48 | COc1ncc(-c2nccnc2NCC(C)O)c(OC)n1 (centres unmarked) [CBK036970] | 105
49 | CCN(CC)CCN1CCN(c2cc(-c3ccsc3)ncn2)CC1 [CBK036973] | 93.7
50 | c1ccc(CN2CC[C@H](Nc3nccnc3-c3cccnc3)C2)cc1 [CBK036978] | 104
51 | CCCC/C=C/c1ccc(N2CCN(CCN(C)C)CC2)nc1 [CBK036980] | 101
52 | CC(=O)c1ccc(-c2nccnc2N[C@@H]2CCN(Cc3ccccc3)C2)s1 [CBK036981] | 104
53 | CN1CCN(c2cccc(-c3cc(C(F)(F)F)cc(C(F)(F)F)c3)n2)CC1 [CBK036982] | 93.3
54 | CN(C)CCN(C)c1cccc(-c2ccc(CCC(=O)O)cc2)n1 [CBK036983] | 105
55 | CN(C)c1cccc(Nc2ccc(/C=C/c3ccccc3)cn2)c1 [CBK036984] | 98.7
56 | Nc1cccc(-c2ccc(NCc3cc(F)c(F)c(F)c3)nc2)c1 [CBK036985] | 97.2
57 | c1ccc(Oc2ccc(Nc3cccc(-c4ccc(N5CCOCC5)cc4)n3)cc2)cc1 [CBK036986] | 95.4
58 | COc1cc(Nc2cccc(-c3ccsc3)n2)cc(OC)c1OC [CBK036987] | 97.9
59 | CC(=O)c1ccc(-c2cc(N3CCN(C(=O)c4ccco4)CC3)ncn2)s1 [CBK036999] | 105
60 | COc1ccccc1CCC(=O)Nc1cnc(-c2ccc(F)cc2)c(-c2ccco2)n1 [CBK037002] | 95.1
61 | CC(=O)c1ccc(-c2nccnc2N2CCN(c3ccncc3)CC2)s1 [CBK037015] | 95.8
62 | C=CCNc1nccnc1-c1cccnc1 [CBK037016] | 101
63 | Oc1cccc(-c2nccnc2N[C@@H]2CCN(Cc3ccccc3)C2)c1 [CBK037017] | 98.2
64 | CN1CCN(c2cccc(-c3cc4ccccc4s3)n2)CC1 [CBK037019] | 102
65 | COc1ccc(Nc2ccc(-c3cccc(OC(F)(F)F)c3)cn2)cn1 [CBK037022] | 100
66 | COc1cncc(-c2cccc(N3CCN(CCN(C)C)CC3)n2)c1 [CBK037024] | 97.4
67 | Oc1ccc(-c2cccc(N3CCN(c4ccccn4)CC3)n2)cc1 [CBK037028] | 103
68 | CN(C)CCN1CCN(c2cccc(-c3ccncc3)n2)CC1 [CBK037029] | 95.9
69 | Cc1cccc(-c2ncc(NC(=O)Cc3ccc(OC(F)(F)F)cc3)nc2-c2cccnc2)c1 [CBK037030] | 89.2

Row | Structure (SMILES) | viability at 28.5 h, 10 µM [%]
70 | C[C@H](Nc1nccnc1-c1ccco1)c1ccccc1 [CBK037032] | 93.1
71 | COc1ncc(-c2cc(N3CCN(CCN(C)C)CC3)n3nccc3n2)c(OC)n1 [CBK037033] | 87.7
72 | CC(=O)N1CCC(C(=O)Nc2cnc(-c3ccc(F)cc3)c(-c3ccco3)n2)CC1 [CBK037038] | 104
73 | CN(C)c1ccccc1-c1cc(N2CCN(S(=O)(=O)c3ccc(Cl)cc3)CC2)ncn1 [CBK037039] | 81.7
74 | Clc1cc(NCc2ccc(Cl)c(Cl)c2)n2nccc2n1 [CBK037043] | 97.7
75 | CC(=O)c1ccc(-c2nccnc2NCc2cccnc2)s1 [CBK037050] | 99.5
76 | C=CCNc1nccnc1-c1ccc(C(C)=O)s1 [CBK037052] | 88.8
77 | OC(CNc1nccnc1-c1ccsc1)COc1ccccc1 (centres unmarked) [CBK037057] | 96.3
78 | O=C(c1ccc(-c2nccnc2NCc2cccs2)cc1)N1CCOCC1 [CBK037059] | 98.8
79 | COc1cc(-c2cc(N3CCN(Cc4cccnc4)CC3)n3nccc3n2)cc(OC)c1OC [CBK037063] | 95.9
80 | OCc1ccc(-c2nccnc2NCc2cccc(C(F)(F)F)c2)cc1 [CBK037076] | 114
81 | Oc1cccc(-c2nccnc2N2CCN(c3ccncc3)CC2)c1 [CBK037079] | 113
82 | O=C(O)c1cccc(-c2cc(N3CCN(Cc4cccnc4)CC3)n3nccc3n2)c1 [CBK037080] | 106
83 | OC(CNc1nccnc1-c1ccccc1Cl)COc1ccccc1 (centres unmarked) [CBK037085] | 92
84 | OCc1ccc(-c2nccnc2NCc2ccccn2)cc1 [CBK037088] | 106
85 | CC(C)Nc1nccnc1-c1cccc(O)c1 [CBK037089] | 97.3
86 | Cc1cccc(-c2ncc(NC(=O)COc3ccc([N+](=O)[O-])cc3)nc2-c2cccnc2)c1 [CBK037096] | 97.8
87 | CN1CCN(c2cc(-c3cccc(CO)c3)nc3ccnn23)CC1 [CBK037099] | 98.1
88 | CCCNc1nccnc1-c1ccc(F)c(Cl)c1 [CBK037100] | 104
89 | CC(CCCC(C)(C)O)Nc1cc(N2CCN(C)CC2)n2nccc2n1 (centres unmarked) [CBK037103] | 98.2
